According to article PMC11997985, “Synthesis and In Vitro Profiling of Psilocin Derivatives: Improved Stability and Synthetic Properties” (Journal of Medicinal Chemistry, 2025):
Values joined by “and” are separate entries in the source; they are usually repeats but may differ in a detail not shown here. Equal entries are not always repeated. “Also recorded” adds a separate entry of the source. Marks after values point to notes of the source that are not given here.

What was measured:
porcine liver esterase = assay: Stability in FaSSIF supplemented with esterase; conditions: for % prodrug remaining, measured after 1 min: after 1 min at 20 IU/mL; for predicted half-life: at 270 IU/mL; for predicted abs.: calculated remaining prodrug available for GI absorption, predicted level after 5 min at 270 IU/mL (% remaining prodrug); for half-life at 0.292 mM: pig, FaSSIF supplemented with porcine liver esterase (20 IU/mL)
[1] = Co-factor experiment: microsome suspension with and without NADPH; assay type: in vitro ADME, human; conditions: for Co-factor experiment: degradation with and without addition of NADPH compared
Experimental: Therefore, additional experiments comparing stability with and without the addition of NADPH cofactor and a very short incubation period were performed (Tables S4 and S5). […] Due to the rapid observed degradation in microsomes, we decided to investigate the stability of five compounds in human plasma, aiming for a broad range of stabilities (Table 2, Table S6). It should be noted that esterase-labile compounds are notoriously difficult to study in microsomal stability studies.[36]
Table S3 Evaluation of metabolic stability in human microsomes
No. Metabolic stability Comment
4k <10/<10 Low retention in chromatography
8 <10/<10 Low retention in chromatography.
Table S4 Results from the modified microsome assay where degradation with and without the addition of NADPH was compared […]
4d Very low peak area for the first time point,
4e Very low peak area for the first time point,
4f Very low peak area for the first time point,
5 Very low peak area for the first time point,
8 No degradation without co -factor […]
metabolism by the microsomes (consisting mainly of cytochrome P450 enzymes) or if it was due to other factors, the compounds (with the exception of 4k) were incubated in the microsome suspension both with and without the addition of NADPH. Samples […]
(§1) were taken at three timepoints, and the degradation was compared to determine if it was dependent on NADPH. Compound 4k […]
(§2) without the addition of NADPH. […]
(§3) microsomes that need to be activated by a co -factor.
(§4) Table S5 Percent of peak area found in microsome suspension 15 seconds after the addition of NADPH in comparison with the same amount dissolved in H2O/EtOH
(§5) No. Area at 0.25 min. in Area in solution % found in microsomes/NADPH (125 nM) microsome
(§6) Comparison with compounds in solution. A comparison was made between the peak area of the compounds in solution with that obtained in the microsome suspension directly after the addition of NADPH (about 0.25 minutes) (Table S5). Before the addition of NADPH, the compounds are equilibrated in the microsome suspension for approximately five minutes. All compounds were prepared in solution by diluting a portion of the DMSO solutions with H2O/EtOH (75:25) to 125 nM (the final concentration of compounds for analysis in the microsome assay).
(§7) For the compounds where no results from the microsome assay could be reported due to low peak area (4d, 4e, 4f & 5), less than one percent of the expected peak area as compared with the area in solution was detected. […]
(§8) degrade rapidly before the addition of the co-factor after five minutes in incubation. For compounds 4g, 4h, 4i & 4j, which were […]
(§9) higher relative peak areas were found. […]
(§10) without NADPH was only found at 15% of the area seen in solution in the microsome suspension.

[2] = Stability in simulated stomach acid (0.10 M HCl); conditions: 0.10 M HCl (simulated stomach acid)
[3] = Chemical stability in 1.0 M NaHCO3 and 1.0 M HCl
[4] = Metabolic stability in human microsomes; assay type: in vitro ADME; conditions: for Metabolic stability in human microsomes: 37 °C, 0.5 mg/mL protein, 1 μM compound, 1 mM NADPH; for Comment on microsome assay: Table S3
[5] = Solubility, screen method, phosphate buffer pH 7.4, 1% DMSO; assay type: physicochemical; conditions: phosphate buffer with 1% DMSO; 100 mM phosphate buffer pH 7.4, 1% DMSO; assay range 0.1 to 100 μM
[6] = Peak area in microsome suspension compared with compounds in solution; assay type: in vitro ADME, human; conditions: peak area 15 seconds after addition of NADPH versus same amount (125 nM) in H2O/EtOH
Experimental: as §1, §2, §3, §4, §5, §6, §7, §8, §9, §10

[7] = Thermal degradation of psilocin salts at 60 °C; conditions: for % psilocin remaining: after 6 days (143 h)
[8] = Forced degradation of psilocin salts, acid (1.0 M HCl); conditions: for half-life at 2 mg/mL freebase psilocin: 1.0 M HCl (acid forced degradation); for % psilocin remaining: after 24 h compared with first measuring point at 1 h, LCMS; for color: visual inspection after 24 h
[9] = General observations of psilocin salts in solid form in −18 °C freezer; conditions: for stability (solid form): over 3 weeks in −18 °C freezer, visual inspection and LCMS; for hygroscopic: visual inspection
[10] = Forced degradation of psilocin salts, oxidative (0.30% H2O2)
[11] = Forced degradation of psilocin salts, base (0.10 M NaOH); conditions: for half-life at 24 h, 2 mg/mL freebase psilocin: 0.10 M NaOH (base forced degradation)
[12] = Photolytic degradation of psilocin salts; conditions: for % psilocin remaining: after 14 days
[13] = 0.30% H2O2 (oxidative forced degradation), half-life, 0.30% H2O2, RT
[14] = 0.30% H2O2 (oxidative forced degradation), half-life, 0.30% H2O2

Structure (SMILES) | Co-factor experiment [1] | half-life at 5 mM [2] | half-life at 24 h, 5 mM ([3]; 1.0 M NaHCO3) | Metabolic stability in human microsomes [4] | Comment on microsome assay [4] | % psilocin remaining [7] | half-life at 2 mg/mL freebase psilocin [8] | % psilocin remaining ([8]; 1.0 M HCl) | color ([8]; 1.0 M HCl, RT) | stability (solid form) [9] | hygroscopic [9] | % psilocin remaining ([10]; 0.30% H2O2, after 24 h) | half-life at 24 h, 2 mg/mL freebase psilocin [11] | % psilocin remaining ([11]; 0.10 M NaOH, after 24 h) | half-life at 336 h, 2 mg/mL freebase psilocin [12] | % psilocin remaining ([12]; 12900 lx) | also measured
CC(C)COC(=O)Oc1cccc2[nH]cc(CCN(C)C)c12.O=CO [Compound 4d] | Very low peak area for the first time point, instability suspected | > 6.94 days | 2200 min | >200^a μL/min/mg protein and >200 μL/min/mg protein | Rapid degradation |  |  |  |  |  |  |  |  |  |  |  | degradation rate among prodrugs (porcine liver esterase; FaSSIF, 20 IU/mL esterase): fastest degradation; % prodrug remaining, measured after 1 min (porcine liver esterase): 7%; predicted half-life (porcine liver esterase): 0.02 min; predicted abs. (porcine liver esterase): 7.0 × 10^–77; half-life at 0.292 mM (porcine liver esterase): 0.26 ± 0.02 min; half-life at 5 mM ([3]; 1.0 M HCl): > 6.94 days; solubility [5]: > 90 µM
COC(=O)Oc1cccc2[nH]cc(CCN(C)C)c12.O=C(O)/C=C/C(=O)O [Compound 4e] | Very low peak area for the first time point, instability suspected | > 6.94 days | 1000 min | >200^a μL/min/mg protein and >200 μL/min/mg protein | Rapid degradation |  |  |  |  |  |  |  |  |  |  |  | % prodrug remaining, measured after 1 min (porcine liver esterase): 60%; % prodrug remaining, no esterase 30 min (porcine liver esterase; after 30 min with no esterase): 100%; predicted half-life (porcine liver esterase): 0.10 min; predicted abs. (porcine liver esterase): 4.1 × 10^–13; half-life at 0.292 mM (porcine liver esterase): 1.41 ± 0.32 min; half-life at 24 h, 5 mM ([3]; 1.0 M HCl): 9000 min
CN(C)CCc1c[nH]c2cccc(OC(=O)OCc3ccccc3)c12.O=C(O)/C=C/C(=O)O.O=CO [Compound 4f] | Very low peak area for the first time point, instability suspected | > 6.94 days | 700 min | >200^a μL/min/mg protein and >200 μL/min/mg protein | Rapid degradation |  |  |  |  |  |  |  |  |  |  |  | % prodrug remaining, measured after 1 min (porcine liver esterase): 21%; predicted half-life (porcine liver esterase): 0.03 min; predicted abs. (porcine liver esterase): 6.6 × 10^–45; half-life at 0.292 mM (porcine liver esterase): 0.44 ± 0.04 min; half-life at 24 h, 5 mM ([3]; 1.0 M HCl): 6000 min
CCCCCCCCCCC(=O)Oc1cccc2[nH]cc(CCN(C)C)c12.O=C(O)/C=C/C(=O)O [Compound 4j] | Degradation without co-factor | > 6.94 days | 1000 min | >200^a μL/min/mg protein and >200 μL/min/mg protein | Rapid degradation |  |  |  |  |  |  |  |  |  |  |  | microsomal CLint ([1]; human, human microsome suspension, both with and without the addition of NADPH, read-out: intrinsic clearance): > 200 µL/min/mg; half-life at 24 h, 5 mM ([3]; 1.0 M HCl): 1300 min; % found in microsome suspension [6]: 45%
CN(C)CCc1c[nH]c2cccc(OC(=O)N3CCCCC3)c12.O=C(O)/C=C/C(=O)O [Compound 4k] |  | > 6.94 days |  | <10/<10^b μL/min/mg protein and <10 μL/min/mg protein |  |  |  |  |  |  |  |  |  |  |  |  | half-life at 5 mM ([3]; 1.0 M HCl): > 6.94 days; half-life at 5 mM ([3]; 1.0 M NaHCO3): > 6.94 days; solubility [5]: > 90 µM; % found in microsome suspension [6]: 79%
CN(C)CCc1c[nH]c2cccc(OB(O)O)c12.O=C(O)/C=C/C(=O)O [Compound 5] | Very low peak area for the first time point, instability suspected | < 0.00347 days |  | >200^a μL/min/mg protein and >200 μL/min/mg protein | Rapid degradation |  |  |  |  |  |  |  |  |  |  |  | half-life at 5 mM ([3]; 1.0 M HCl): < 0.00347 days; half-life at 5 mM ([3]; 1.0 M NaHCO3): < 0.00347 days
CN(C)CCc1c[nH]c2cccc(O)c12.Cl [Compound 9a] |  |  |  |  |  | 0% | > 6.94 days | 100% | clear | degrading during storage after only 3 days; also recorded: not very stable | highly hygroscopic and yes | 100% | 500 min | 0% | 13.9 days | 51% | half-life at 2 mg/mL freebase psilocin [7]: < 2880 min; half-life at 144 h, 2 mg/mL freebase psilocin [7]: 3000 min; half-life at 2 mg/mL freebase psilocin [10, 13]: > 10000 min
CN(C)CCc1c[nH]c2cccc(O)c12.OB(O)O [Compound 9b] |  |  |  |  |  | 0% |  | 93% | clear | stable enough to store as a solid in the freezer for an extended period; also recorded: no change | no | 0% |  | 0% |  | 0% | half-life [7]: <700 min; time to complete degradation [7]: ≤ 24 h; color (24 h) ([7]; water:acetonitrile 1:1): black; half-life ([8]; 1.0 M HCl, RT): >10,000 min; time to complete degradation ([10]; 0.30% H2O2): ≤ 3 h; half-life ([10]; 0.30% H2O2, RT): <60 min; color ([10]; 0.30% H2O2, after 24 h, RT): brown; half-life ([11]; 0.10 M NaOH, RT): 400 min; color ([11]; 0.10 M NaOH, after 24 h, RT): black; half-life ([12]; 12900 lx, RT): <1000 ^b min; time to complete breakdown ([12]; 12900 lx, RT): ≤ 1 week; color (24 h) ([12]; 12900 lx, RT, water:acetonitrile 1:1): black; control sample stored in darkness ([12]; in air at RT for a week, dissolved salt): entirely degraded
CN(C)CCc1c[nH]c2cccc(O)c12.O=C(O)c1ccccc1 [Compound 9c] |  |  |  |  |  | 0% | > 6.94 days | 100% | clear | stable enough to store as a solid in the freezer for an extended period; also recorded: no change | no | 94% | 500 min | 0% | 6.25 days | 0% | half-life at 2 mg/mL freebase psilocin [7]: < 2880 min; half-life at 144 h, 2 mg/mL freebase psilocin [7]: 2000 min; half-life at 2 mg/mL freebase psilocin [10, 13]: > 10000 min; time to complete breakdown ([12]; 12900 lx, RT): ≤ 1 week
CN(C)CCc1c[nH]c2cccc(O)c12.O=P(O)(O)O [Compound 9e] |  |  |  |  |  | 0% | > 6.94 days | 94% | clear | darkens after 1 week | no | 83% | 300 min | 0% | 13.9 days | 33% | half-life at 144 h, 2 mg/mL freebase psilocin [7]: 4000 min; half-life at 2 mg/mL freebase psilocin [10, 14]: > 1440 min; half-life at 24 h, 2 mg/mL freebase psilocin [10, 13]: 800 min
CN(C)CCc1c[nH]c2cccc(O)c12.O=C(O)C(F)(F)F [Compound 9f] |  |  |  |  |  | 0% | > 6.94 days | 99% | clear | degrades within 3 days | highly hygroscopic and yes | 78% | 900 min | 0% | 6.94 days | 22% | half-life at 2 mg/mL freebase psilocin [7]: < 2880 min; half-life at 2 mg/mL freebase psilocin [10, 14]: > 1440 min; half-life at 2 mg/mL freebase psilocin [10, 13]: 2000 min
